Laboratory results from patent publication US20140179794A1, “LEVOMILNACIPRAN-BASED DRUG FOR FUNCTIONAL RECOVERY AFTER ACUTE NEUROLOGICAL EVENTS” (PIERRE FABRE MEDICAMENT, priority 2011, published 2014).

Assay: Binding to the recombinant human alpha1 receptor (prazosin [3H], CHO cell membranes)
Source text: The bound fraction was separated by filtration and washing in cooled TRIS+NaCl+KCl buffer. […] The bound fraction was separated by filtration and washing in cooled TRIS+NaCl+KCl buffer. […] The bound fraction was separated by filtration and washing in cooled TRIS buffer.

Work on `CCN(CC)C(=O)C1(c2ccccc2)CC1CN` (centres unmarked) [dextromilnacipran] yielded a Ki of 3.4 µM.
With `CCN(CC)C(=O)[C@@]1(c2ccccc2)C[C@H]1CN` [levomilnacipran] the Ki was 110 µM.
